Source: patent publication US20210393664A1, “THERAPEUTIC METHODS AND COMPOSITIONS FOR TREATING ACUTE MYELOID LEUKEMIA USING DEVIMISTAT” (Rafael Pharmaceuticals, Inc., priority 2018, published 2021)

Experiments:
[1] = Leaching of DEHP from IV infusion sets and IV bags; format: physicochemical; settings: DEHP-containing IV infusion sets and IV bags
[2] = Animal study NCL-049: extra air in the dead space of IV catheters during administration; format: in vivo; settings: accidental co-administration of extra air in the dead space of IV catheters; animal studies (Study NCL-049)
Experimental: (§1) Diluted CPI-613® (devimistat) drug product must be administered over 2 hours, concurrently with D5W at the rate of 125 mL/hour, by IV infusion via a central line catheter, using an infusion pump, that is free flowing and free of air in the dead space of the IV catheter. This is done to minimize vascular irritation, inflammation and acute toxicity of CPI-613® (devimistat) (Study NCL-049). […] To avoid local reactions at and around the site of administration, CPI-613® (devimistat) must be administered via a central IV catheter.

[3] = set-up: species or system animal; settings: in vivo, iv
Experimental: as §1

[4] = Adverse events by relatedness to devimistat; format: in vivo, human; settings: patients
Excerpt: An AE can therefore be any unfavorable sign (including an abnormal laboratory finding), symptom, or disease temporarily associated with the study treatment, whether or not related to the investigational product.
Probably Related—A clinical event follows a reasonable temporal sequence from the time of Investigational Product (CPI-613®) administration. The toxicity cannot be reasonably explained by other factors such as the subjects clinical state or concurrent medical condition, or concurrent medication(s).
Possibly Related—A clinical event follows a reasonable temporal sequence from the time of active Investigational Product (CPI-613®) administration, but could also have been produced by other factors such as the subjects clinical state, or concurrent medical condition, or concurrent medication(s).

O=C(O)CCCCC(CCSCc1ccccc1)SCc1ccccc1 (stereo not shown) [devimistat, 6,8-bis-benzylthio-octanoic acid]
leaching of DEHP [1]: can cause leaching of DEHP from IV infusion sets and IV bags
acute toxicity [2]: potential to induce acute toxicity
local inflammation [3]: significant local inflammation
adverse events probably related [4]: Nausea, Vomiting, Diarrhea, Increased creatinine, Neutropenia, Hyperkalemia, Hypoalbuminemia, Hypophosphatemia, Hyponatremia, Fatigue, Platelet count decreased, Renal failure (reversible), Glomerular filtration rate (decreased), Hemoglobin (anemia)
